{"source": "patent US20030018991A1", "about": "“Transformation and regeneration of wheat using increased copper levels” (priority 2001, published 2003)", "key": {"wheat scutellar tissues": {"tested_on": "wheat scutellar tissues", "assay": "Recovery of transgenic wheat lines and plant escapes after particle bombardment, with 100 μM copper in regeneration medium", "format": "cell-based"}, "[1]": {"tested_on": "cultures of the anther of tetraploid (pasta) wheat", "conditions": "cited from earlier work"}, "[2]": {"tested_on": "callus cultures in hexaploid wheat", "conditions": "cited from earlier work"}, "[3]": {"tested_on": "wheat embryogenic calluses induced from scutellar tissues", "assay": "Shoot regeneration from embryogenic calluses on RZ regeneration medium supplemented with CuSO4", "format": "cell-based", "conditions": "for optimum range of copper concentration: number of plants regenerated per callus", "method": "The primary culture explants were immature embryos or scutella. Wheat caryopses containing early-medium milk-stage grains with translucent embryos were harvested and surface-sterilised in 70% ethanol for 5 min and 0.5% hypochlorite solution for 15 min. Under aseptic conditions, embryos of approximately 0.5-1.0 mm length were isolated and either cultured entirely or the embryo axes were removed to produce isolated scutella. Thirty embryos/scutella were placed in the center (18 mm target circle) of a 90 mm Petri dish containing callus induction medium. The callus induction medium for embryos/scutellar tissues, called MD0.5, consisted of solidified (0.5% […], Sigma A3301) modified MS medium supplemented with 9% sucrose, 10 mg l^-1 AgNO3 and 0.5 mg l^-1 2,4-D (Rasco-Gaunt et al., 2001 J. Exp. Bot. 52 (357): 865-874). Embryos/scutella were placed with the embryo-axis side in contact with the medium. Cultures were incubated at 25±1° C. in darkness for approximately 24 hr before bombardment. Embryogenic calluses were transferred, for regeneration, to RZ regeneration medium and cultured under 12 h light (250 μE s^-1 m^-2, from cool white fluorescent tubes) at 25+1° C. for three weeks. The RZ regeneration medium, contained L salts, vitamins and myo-inositol, 3% w/v maltose, 0.1 mg l^-1 2,4-D and 5 mg l^-1 zeatin (Rasco-Gaunt and Barcelo, 1999 Plant Cell Culture Protocols. Methods in Molecular Biology series. Hall, RD ed. 111: 71-81, Humana Press, Totowa NJ) and CuSO4 at concentrations ranging from 0 to 1000 μM. The supplementation of silver nitrate in the range of 1-20 mg l^-1 is optional. Selection agents such as 2-6 mg l^-1 Glufosinate ammonium (Greyhound, United Kingdom) and 10-500 ppm sulfonylurea herbicide e.g. Nicosulfuron (DuPont, France) and Rimsulfuron (DuPont, France) were incorporated in RZ regeneration medium. A second three-week culture passage on the same medium was performed as required, with or without a selection agent. Following culture on RZ regeneration medium, plantlets were cultured for one or two three-week passages on R0 medium (RZ without hormones, AgNO3 and CuSO4 supplementation), with or without the selection agent. To determine the effects of increased copper concentration on shoot regeneration, embryogenic calluses were subcultured onto RZ regeneration medium (see Example 1) supplemented with CuSO4 at concentrations ranging from 0 to 1000 μM. Prior to transfer onto RZ regeneration medium, calluses were induced from scutellar tissues. Procedures for the growth of donor plant materials, isolation of explants and culture initiation are described in Example 1. Following culture on CuSO4 medium, the calluses were transferred to R0 medium (see Example 1). After three weeks, regeneration frequencies of calluses, average number of plant per callus, as well as shoot quality were noted. Regeneration frequency is calculated as the number of shoot-producing calluses divided by the total number of scutella isolated. Percent (%) regeneration is […] multiplied by 100."}, "[4]": {"conditions": "100 μM copper, PPT selection, different genotypes (Example 4)"}}, "note": "Where two headings read alike, the source gives them in different places.", "data": [{"smiles": "O=S(=O)([O-])[O-].[Cu+2]", "note": "[CuSO4]", "values": [{"measurement": "transformation frequency", "setting": "wheat scutellar tissues; 100 μM CuSO4, Cadenza and NH535, PPT and sulfonylurea selection systems", "value": "improved"}, {"measurement": "frequency of plant escapes", "setting": "wheat scutellar tissues; [4]", "value": "did not have an important effect"}, {"measurement": "recovery of transformants / transformation efficiencies", "setting": "wheat scutellar tissues; [4]", "value": "improved"}, {"measurement": "plant escape frequency", "setting": "wheat scutellar tissues; 100 μM copper, plasmid pHP8092, PPT selection, varieties Cadenza and NH535", "value": "slightly higher"}, {"measurement": "plant escapes", "setting": "wheat scutellar tissues; 100 μM copper, variety Cadenza, PPT selection, constructs p15629 and pAHC20", "value": "clear reduction"}, {"measurement": "escape frequency", "setting": "wheat scutellar tissues; 100 μM copper, variety NH535, sulfonylurea selection, construct pML146", "value": "higher"}, {"measurement": "production of embryoid from anthers versus control treatment", "setting": "[1]; 20 or 40 μM CuSO4, three of four genotypes", "value": "increased"}, {"measurement": "embryoid production", "setting": "[1]; fourth genotype, all levels tested (10, 20 or 40 μM)", "value": "reduced"}, {"measurement": "production of green plants versus control media", "setting": "[1]; over the four genotypes, copper-containing media", "value": "lower"}, {"measurement": "regeneration rates relative to original MS copper level (0.1 μM)", "setting": "[2]; 10 μM CuSO4, Purnhauser 1991", "value": "eight times higher"}, {"measurement": "optimum Cu level", "setting": "[2]; \"more detailed\" studies cited in Purnhauser 1991", "value": 2, "unit": "µM"}, {"measurement": "optimum Cu level", "setting": "[2]; Purnhauser 1991 study", "value": 10, "unit": "µM"}, {"measurement": "maximum regeneration frequency achieved", "setting": "[2]; optimum 10 μM Cu, single breeding line, Purnhauser 1991", "value": 59, "unit": "%"}, {"measurement": "shoot quality", "setting": "[3]; copper levels up to 500 μM, Riband and Imp, versus control 0.1 μM copper", "value": "vigorous and prolific"}, {"measurement": "optimum range of copper concentration", "setting": "[3]; variety Eole", "value": "100 to 150", "unit": "µM"}, {"measurement": "optimum range of copper concentration", "setting": "[3]; variety NH535", "value": "100 to 200", "unit": "µM"}, {"measurement": "regeneration frequencies", "setting": "[3]; wheat variety Eole, CuSO4 levels up to 300 μM", "value": 100, "unit": "%"}, {"measurement": "Plant regeneration frequency", "setting": "[3]; wheat variety Imp, CuSO4 levels up to 300 μM", "value": 100, "unit": "%"}, {"measurement": "regeneration frequencies", "setting": "[3]; wheat variety NH535, CuSO4 levels up to 300 μM", "value": 100, "unit": "%"}, {"measurement": "Plant regeneration frequency", "setting": "[3]; wheat variety Riband, levels up to 500 μM CuSO4", "value": 100, "unit": "%"}, {"measurement": "effect on regeneration frequency", "setting": "[3]; while improving shoot quality", "value": "no negative effect"}]}]}
